Results: publication PMC8997399, “High-Throughput Screening to Identify Inhibitors of Plasmodium falciparum Importin α” (Cells, 2022)
Where two headings read alike, the source gives them in different places.

Columns and labels:
P. falciparum 3D7 strain = experiment: P. falciparum growth inhibition assay (HRP2 sandwich ELISA); format: cell-based, Plasmodium falciparum
Description: Red blood cells (RBCs) were derived from blood from volunteers (approval from the Institute Ethics Committee, IIT Bombay, Mumbai, India) by density gradient centrifugation. Aliquots of cryopreserved P. falciparum 3D7 strain in human red blood cells (RBCs—3% hematocrit, <5% parasitemia) were thawed and cultured using RPMI (Roswell Park Memorial Institute) 1640 medium supplemented with 0.5% Albumax (Gibco^TM, Waltham, MA, USA), 50 mg/L hypoxanthine (Sigma-Aldrich, St Louis, MO, USA), 2 g/L D-glucose (Sigma-Aldrich, St Louis, MO, USA), 2 g/L sodium bicarbonate (Sigma-Aldrich, St Louis, MO, USA), and 56 mg/L of gentamicin (Abbott, Chicago, IL, USA) at 37 °C in 5% CO2 in a humidified incubator according to the standard procedures; suspension cultures were maintained at 3% hematocrit and <5% parasitemia, by adding a fresh medium daily and a regular addition of fresh human RBCs.
Before growth inhibition assays, cultures were synchronized using 5% D-sorbitol (Sigma-Aldrich, St Louis, MO, USA) predominantly to obtain the ring stage of the P. falciparum life cycle.
Growth assays in the absence and presence of inhibitors were performed using the Histidine–Rich Protein 2 (HRP2) sandwich horseradish peroxidase-linked immunosorbent assay to measure HRP2 protein levels as an indicator of growth. Briefly, 25 µL of compound was added to 96-well microculture plates (Eppendorf, Hamburg, Germany) of 0.25% (with fresh RBCs), and added at a hematocrit of 3%. The plates were then incubated for 72 h at 37 °C in a humidified incubator, sparged with 5% CO2. 72 h later, the plates were subjected to freeze–thaw to achieve hemolysis, and samples diluted 200-fold in H2O in transferring to another plate. A day prior to analysis, 96-well ELISA plates (Sigma-Aldrich, St Louis, MO, USA) were coated overnight at 4 °C with 100 µL of 1 μg/mL IgM capture antibody MPFM-55A (Immunology Consultants Laboratory, Portland, OR, USA) specific for P. falciparum HRP2. After blocking for 2 h at room temperature with 2% BSA in PBS, diluted samples were added to the wells, followed by incubation for 2 h, then the plates were washed three times with 0.05% Tween 20 in PBS. Next, 100 µL of the secondary antibody MPFG-55P (Immunology Consultants Laboratory, Portland, OR, USA) conjugated with horseradish peroxidase (0.25 μg/mL in PBS with 2% BSA) was then added to each well, and the plates incubated for 1 h at room temperature, prior to being washed three times, and 100 µL 3,3′, 5,5′ tetramethylbenzidine substrate (BD Biosciences, San Jose, CA, USA) being added. After 10 min incubation in the dark, 50 µL of 1 M H2SO4 was added and the absorbance was read at 450 nm on a Multiscan™ FC Microplate Spectrophotometer (Thermo Fisher Scientific, Waltham, MA, USA).

TgIMPα [1] = target: T1, TgIMPα (Toxoplasma gondii, UniProt A0A125YID0); experiment: biochemical; format: binding; settings: for % Inhibition of IMPα-NLS Interaction TgIMPα: compounds at 10 μM, TgIMPα (5 nM):T-ag-NLS-GFP (30 nM), relative to 1% DMSO control
Description: (§1) PfIMPα, TgIMPα, Mus musculus IMPα (MmIMPα), ΔIBBMmIMPα, and β1 (MmIMPβ) GST fusion proteins were expressed and purified essentially as previously. His-tagged TGS1-NLS-GFP, PfIMPα and TgIMPα proteins were purified using Ni^2+-affinity chromatography as described. His-tagged SV40 T-ag-NLS-GFP was purified as previously. Biotinylation of GST-tagged proteins was carried out using the Sulfo-NHS-Biotin reagent (Pierce, Rockford, IL, USA) as described previously. AlphaScreen binding assay was performed as described previously.
(§2) Plates were read for an Alphascreen signal on an Envision plate reader (PerkinElmer, Waltham, MA, USA), with signals from the negative control wells (no bait control) on each plate subtracted.

TgIMPα [2] = target: T1, TgIMPα; experiment: Thermostability assay (TSA), TgIMPα; format: binding
Description: The effect of inhibitory compounds on IMPα thermostability was tested, as previously, using the fluorescent dye SYPRO Orange (Thermo Fisher Scientific, Waltham, MA, USA) and the Qiagen Rotor-Gene Q6 plex instrument programmed in the melt curve mode. Increasing concentrations of compound in 0.5 µL DMSO were added to 24.5 µL recombinant protein (2 µM) in phosphate-buffered saline (PBS). Next, 1 µL of SYPRO Orange dye was added, the reaction mixture heated at 0.5 °C/min from 27 °C to 90 °C, and the fluorescence intensity caused by the SYPRO Orange binding to the proteins monitored (excitation/emission: 530/555 nm). Tm is the temperature at which 50% of the protein is unfolded.

PfIMPα = PfIMPα (Plasmodium falciparum, UniProt Q8IAW0); experiment: biochemical; format: binding; settings: for % Inhibition of IMPα-NLS Interaction PfIMPα: compounds at 10 μM, PfIMPα (10 nM):TGS1-NLS-GFP (60 nM), relative to 1% DMSO control, quadruplicate
Description: as §1
Then, 10 nM biotinylated PfIMPα and 60 nM TGS1-NLS-GFP were used with library compounds, screened at 10 µM final concentration.
Briefly, 5 μL of each compound in DMSO was added to quadruplicate wells of a 384-well plate along with appropriate controls including DMSO alone and ivermectin, as previously, using a JANUS Modular Dispense Technology (MDT) robotic system (PerkinElmer, Waltham, MA, USA). This was followed by successive 7 and 5 μL additions, respectively, of PfIMPα (10 nM) and TGS1-NLS-GFP (60 nM) or PBS (“no bait” control), respectively, and 30 min incubation at room temperature. […] Then, 4 µL of the AlphaScreen donor beads (1/40 dilution of GSH. acceptor beads in PBS) was finally added to each well using a Multidrop, followed by a further incubation of 2 h at room temperature in the dark.
as §2

[3] = 10 µM, 72 h, 0.25% parasitemia (Figure 5A)
[4] = pooled, mean ± SEM (n = 3), read-out: IC50 TgIMPα:T-ag-NLS-GFP

T1 sequence (A0A125YID0 entry or part of it): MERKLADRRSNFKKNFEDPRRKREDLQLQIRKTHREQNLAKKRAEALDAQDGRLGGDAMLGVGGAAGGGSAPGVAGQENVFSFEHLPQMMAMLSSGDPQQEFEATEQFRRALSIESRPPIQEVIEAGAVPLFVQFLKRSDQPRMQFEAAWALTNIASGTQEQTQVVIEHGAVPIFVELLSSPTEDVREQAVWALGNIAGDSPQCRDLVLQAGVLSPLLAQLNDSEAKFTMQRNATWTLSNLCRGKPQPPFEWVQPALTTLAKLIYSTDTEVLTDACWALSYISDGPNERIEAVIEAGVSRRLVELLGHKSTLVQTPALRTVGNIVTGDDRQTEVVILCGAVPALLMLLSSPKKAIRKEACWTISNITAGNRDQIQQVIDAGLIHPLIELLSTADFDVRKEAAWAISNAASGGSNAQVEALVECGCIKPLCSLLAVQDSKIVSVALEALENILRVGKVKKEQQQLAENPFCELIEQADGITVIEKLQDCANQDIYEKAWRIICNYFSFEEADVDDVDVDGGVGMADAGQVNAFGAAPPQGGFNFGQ
Sequence of PfIMPα (Q8IAW0 entry or part of it): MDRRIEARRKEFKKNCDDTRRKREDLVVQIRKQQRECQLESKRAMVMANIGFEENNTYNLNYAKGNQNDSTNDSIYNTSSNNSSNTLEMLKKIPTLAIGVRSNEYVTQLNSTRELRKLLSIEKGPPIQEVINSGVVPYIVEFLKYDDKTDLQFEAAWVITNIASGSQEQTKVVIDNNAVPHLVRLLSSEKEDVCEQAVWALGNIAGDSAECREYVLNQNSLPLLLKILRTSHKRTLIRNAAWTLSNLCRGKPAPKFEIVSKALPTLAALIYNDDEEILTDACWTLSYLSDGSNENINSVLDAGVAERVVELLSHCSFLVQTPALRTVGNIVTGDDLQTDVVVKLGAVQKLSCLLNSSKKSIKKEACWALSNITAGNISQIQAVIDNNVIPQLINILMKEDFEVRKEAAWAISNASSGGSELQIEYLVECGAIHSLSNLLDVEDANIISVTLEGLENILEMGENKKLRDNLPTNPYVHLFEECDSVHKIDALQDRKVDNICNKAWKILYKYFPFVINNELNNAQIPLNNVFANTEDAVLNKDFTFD

Structure (SMILES)	inhibition of P. falciparum growth (HRP2 levels) (P. falciparum 3D7 strain; [3])	IC50 (P. falciparum 3D7 strain; parasites in culture, 72 h, pooled, mean ± SD (n = 3))	% Inhibition of IMPα-NLS Interaction TgIMPα (TgIMPα [1])	IC50 (TgIMPα [1]; [4])	fold higher IC50 for TgIMPα-NLS compared to PfIMPα-TGS-NLS interaction (TgIMPα [1]; selectivity for PfIMPα)	TgIMPα stable only up to (TgIMPα [2]; 10–20 µM)	reduction of thermostability of TgIMPα (TgIMPα [2]; 10–20 µM)	% Inhibition of IMPα-NLS Interaction PfIMPα (PfIMPα)	IC50 (P. falciparum 3D7 strain; Plasmodium falciparum, 3D7, 72 h, parasites in culture, pooled, mean ± SD (n = 3))	IC50 (P. falciparum 3D7 strain; Plasmodium falciparum, 3D7, 72 h, single typical experiment (Figure 6))	inhibition at 10 µM (P. falciparum 3D7 strain; Plasmodium falciparum, 3D7, 10 µM, 72 h, 0.25% parasitemia (Figure 5A), read-out: inhibition of P. falciparum growth (HRP2 levels))	IC50 (TgIMPα [1])	inhibition at 10 µM (TgIMPα [1]; read-out: % Inhibition of IMPα-NLS Interaction TgIMPα)	change in stability of TgIMPα (TgIMPα [2]; up to 100 µM)	IC50 (PfIMPα)	inhibition at 10 µM (PfIMPα; read-out: % Inhibition of IMPα-NLS Interaction PfIMPα)	IC50 (TgIMPα [1]; single experiment (Figure 3), IMPα 5 nM, NLS 30 nM, read-out: IC50 TgIMPα:T-ag-NLS-GFP)	TgIMPα stable only up to (TgIMPα [2]; concentrations as low as 5 μM)	reduction of thermostability of TgIMPα (TgIMPα [2]; concentrations as low as 5 μM)
CC(C)(C)c1ccc(S(=O)(=O)/C=C/C#N)cc1 [Bay 11-7085]	~20%	> 10 µM	0%	30.4 ± 0.6 µM	~16 fold	30–36 °C	9–15 °C	75%											
O=C(/C=C/c1ccc(O)c(O)c1)OCCc1ccccc1 [CAPE, Caffeic acid phenethyl ester]									7.5 ± 1.1 µM	6.5 µM	> 50%	2.9 ± 0.9 µM	62%	did not elicit any marked change in stability	1.8 ± 0.3 µM	84%			
CC(=O)OC[C@H]1O[C@@H]([S-])[C@H](OC(C)=O)[C@@H](OC(C)=O)[C@@H]1OC(C)=O.CCP(CC)CC.[Au+] [auranofin]	> 50%		90%	0.08 ± 0.01 µM				94%									0.05 µM	32–35 °C	12–15 °C
